Holding throughout (type): cell-based
In assay [1] the target is T1, PYR1 K59R F108I S122G (Arabidopsis thaliana, UniProt O49686, F108I/K59R/S122G).
T1 construct: expressed in transfected cells; host or cells: S. cerevisiae Y190 two-hybrid reporter strain
The assay can be described thus: Y2H Combinatorial Mutagenesis Screen I (HAB1, X-gal).

The target of assay [2] is T2, PYR1 K59R F108Q S122G (Arabidopsis thaliana, UniProt O49686, F108Q/K59R/S122G).
T2 construct: expressed in transfected cells; host or cells: S. cerevisiae Y190 two-hybrid reporter strain
Described as above.

Assay [3] has as its target T3, PYR1 Y58H K59R V81I F108A S122G V164I (Arabidopsis thaliana, UniProt O49686, F108A/K59R/S122G/V164I/V81I/Y58H).
T3 construct: expressed in transfected cells; host or cells: S. cerevisiae Y190 pACT-HAB1
Briefly: Y2H Combinatorial Mutagenesis II (HAB1, X-gal). An excerpt: (§1) Both of the above optimization experiments led to the identification of the following mutations that, when introduced one at a time, enhance the mandipropamid sensitivity of PYR1^K59R,F108A,S122G: Y58H, V81C, V81I, V81T, V83L, L87A, F159L, F159M, F159V, A160V and V164I. Given that these each enhance sensitivity on their own, we tested if combinations of these mutations might generate more sensitive receptors. Mutagenic primers for each of the mutations were designed and used simultaneously with the QuickChange Lightning Multi Site-Directed Mutagenesis kit (Agilent, USA) with PYR1^K59R,F108A,S122G template DNA. Individual clones were sequenced to identify bona fide combination mutants, which were transformed into the Y190 pACT-HAB1 yeast strain and assayed for mandipropamid sensitivity. These efforts led to the identification of several improved receptors (“Combinatorial Mutagenesis Screen II”, Table 1), including PYR1^Y58H,K59R,V81I,F108A,S122G,F159L, a hextuple mutant that we have named PYR1^MANDI. Yeast reporter strains expressing this mutant are responsive to mandipropamid concentrations as low as 2 nM (Table 1). Thus, the 5-step mutagenesis protocol we followed led to the construction of a mandipropamid responsive receptor with nanomolar sensitivity.

For assay [4], the target named is T4, PYR1 Y58H K59R V81I F108A S122G (PYR1^MANDI) (Arabidopsis thaliana, UniProt O49686, F108A/F159L/K59R/S122G/V81I/Y58H).
T4 construct: expressed in transfected cells; host or cells: S. cerevisiae Y190 pACT-HAB1
The assay can be described thus: Y2H Combinatorial Mutagenesis II (HAB1, X-gal). As to conditions: Y58H K59R V81I F108A S122G F150L.
Description: as §1

For assay [5], the target named is T5, PYR1 K59R V81I F108A S122G A160V (Arabidopsis thaliana, UniProt O49686, A160V/F108A/K59R/S122G/V81I).
T5 construct: expressed in transfected cells; host or cells: S. cerevisiae Y190 pACT-HAB1
The assay can be described thus: Y2H Combinatorial Mutagenesis II (HAB1, X-gal).
Description: as §1

Assay [6] has as its target T6, PYR1 Y58H K59R V83L F108A S122G (Arabidopsis thaliana, UniProt O49686, F108A/K59R/S122G/V83L/Y58H).
T6 construct: expressed in transfected cells; host or cells: S. cerevisiae Y190 pACT-HAB1
Briefly: Y2H Combinatorial Mutagenesis II (HAB1, X-gal).
Description: as §1

Assay [7] deals with T7, PYR1 Y58H K59R V81I F108A S122G F150L (PYR1^MANDI) (Arabidopsis thaliana, UniProt O49686, F108A/F159L/K59R/S122G/V81I/Y58H).
T7 construct: expressed in transfected cells; host or cells: S. cerevisiae Y190 pACT-HAB1
Briefly: Y2H Combinatorial Mutagenesis II (HAB1, X-gal). As to conditions: PYR1^MANDI, yeast two hybrid.
Description: as §1

For assay [8], the target named is T8, PYR1 Y58H K59R V81I F108A S122G (Arabidopsis thaliana, UniProt O49686, F108A/K59R/S122G/V81I/Y58H).
T8 construct: expressed in transfected cells; host or cells: S. cerevisiae Y190 pACT-HAB1
Briefly: Y2H Combinatorial Mutagenesis II (HAB1, X-gal).
Description: as §1

The target in assay [9] is T9, PYR1 Y58H K59R F108A S122G (Arabidopsis thaliana, UniProt O49686, F108A/K59R/S122G/Y58H).
T9 construct: expressed in transfected cells; host or cells: S. cerevisiae Y190 pACT-HAB1
The assay can be described thus: Y2H Recombination Mutagenesis (HAB1, X-gal). An excerpt: As a second approach, we used recombination-based mutagenesis to search for mutant combinations that enhance the sensitivity of PYR1^K59R,F108A,S122G to mandipropamid. Nucleotide excision and exchange technology (NExT) (Müller et al., 2005) was used to mutagenize an equal amount of PYR1^K59R,F108A,S122G template with an equal amount of template DNA that was made by pooling plasmid DNA from the NNK plasmid libraries made above for each of the 23 ligand-contacting residues in the PYR1^K59R,F108A,S122G backbone. Thus, PYR1^K59R,F108A,S122G was mutagenized with recombination-based mutagenesis using a library of pocket site mutations. An ˜200,000 member library of mutagenized clones was generated and was transformed into the MAV99 pACT-HAB1 reporter strain. Selections were conducted on plates containing 0.5 μM mandipropamid and appropriate nutrients and amino acids. To establish if strain growth was ligand dependent, the positive clones were subsequently tested for growth on selective plates lacking mandipropamid. Next, plasmids were isolated from strains showing ligand-dependent growth and the mandipropamid sensitivity of mutant receptors characterized using X-gal staining (after transformation into the into the Y190 pACT-HAB1 reporter strain). […]

T6 sequence (O49686 whole entry Y58H/K59R/V83L/F108A/S122G): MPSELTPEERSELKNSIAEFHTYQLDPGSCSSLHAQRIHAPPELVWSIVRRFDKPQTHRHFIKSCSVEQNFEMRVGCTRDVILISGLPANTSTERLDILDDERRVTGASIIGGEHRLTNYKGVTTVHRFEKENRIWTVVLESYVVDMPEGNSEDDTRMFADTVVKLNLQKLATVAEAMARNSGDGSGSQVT
T6 sequence (Q9CAJ0 23-511 partner): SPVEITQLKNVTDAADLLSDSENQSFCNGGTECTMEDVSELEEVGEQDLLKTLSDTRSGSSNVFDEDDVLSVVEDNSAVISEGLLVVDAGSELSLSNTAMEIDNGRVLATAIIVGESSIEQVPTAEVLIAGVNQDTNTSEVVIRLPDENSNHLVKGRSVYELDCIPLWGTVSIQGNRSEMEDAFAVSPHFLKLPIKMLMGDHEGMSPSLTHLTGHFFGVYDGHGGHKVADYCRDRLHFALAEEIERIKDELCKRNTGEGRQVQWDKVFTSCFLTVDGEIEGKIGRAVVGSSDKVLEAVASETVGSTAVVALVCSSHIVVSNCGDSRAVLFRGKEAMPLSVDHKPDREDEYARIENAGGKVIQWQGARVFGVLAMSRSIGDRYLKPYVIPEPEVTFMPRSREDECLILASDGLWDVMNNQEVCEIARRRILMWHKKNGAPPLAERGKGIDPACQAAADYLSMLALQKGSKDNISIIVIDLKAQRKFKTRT
T1 sequence (O49686 whole entry K59R/F108I/S122G): as the sequence (O49686 whole entry Y58H/K59R/V83L/F108A/S122G) above, with H58Y, L83V, A108I counted along it
T1 sequence (Q9CAJ0 23-511 partner): as the sequence (Q9CAJ0 23-511 partner) above
T9 sequence (O49686 whole entry Y58H/K59R/F108A/S122G): as the sequence (O49686 whole entry Y58H/K59R/V83L/F108A/S122G) above, with L83V counted along it
T9 sequence (Q9CAJ0 23-511 partner): as the sequence (Q9CAJ0 23-511 partner) above
T4 sequence (O49686 whole entry Y58H/K59R/V81I/F108A/S122G/F159L): as the sequence (O49686 whole entry Y58H/K59R/V83L/F108A/S122G) above, with V81I, L83V, F159L counted along it
T4 sequence (Q9CAJ0 23-511 partner): as the sequence (Q9CAJ0 23-511 partner) above
T7 sequence (O49686 whole entry Y58H/K59R/V81I/F108A/S122G/F159L): as the sequence (O49686 whole entry Y58H/K59R/V83L/F108A/S122G) above, with V81I, L83V, F159L counted along it
T7 sequence (Q9CAJ0 23-511 partner): as the sequence (Q9CAJ0 23-511 partner) above
T2 sequence (O49686 whole entry K59R/F108Q/S122G): as the sequence (O49686 whole entry Y58H/K59R/V83L/F108A/S122G) above, with H58Y, L83V, A108Q counted along it
T2 sequence (Q9CAJ0 23-511 partner): as the sequence (Q9CAJ0 23-511 partner) above
T3 sequence (O49686 whole entry Y58H/K59R/V81I/F108A/S122G/V164I): as the sequence (O49686 whole entry Y58H/K59R/V83L/F108A/S122G) above, with V81I, L83V, V164I counted along it
T3 sequence (Q9CAJ0 23-511 partner): as the sequence (Q9CAJ0 23-511 partner) above
T8 sequence (O49686 whole entry Y58H/K59R/V81I/F108A/S122G): as the sequence (O49686 whole entry Y58H/K59R/V83L/F108A/S122G) above, with V81I, L83V counted along it
T8 sequence (Q9CAJ0 23-511 partner): as the sequence (Q9CAJ0 23-511 partner) above
T5 sequence (O49686 whole entry K59R/V81I/F108A/S122G/A160V): as the sequence (O49686 whole entry Y58H/K59R/V83L/F108A/S122G) above, with H58Y, V81I, L83V, A160V counted along it
T5 sequence (Q9CAJ0 23-511 partner): as the sequence (Q9CAJ0 23-511 partner) above

Take `C#CCOc1ccc(CCNC(=O)C(OCC#C)c2ccc(Cl)cc2)cc1OC` (stereo not drawn) [Mandipropamid, mandipropamid]: the Threshold stood at 10 µM in assay [1]; 10 µM in assay [2]; 0.01 µM in assay [3]; 0.002 µM in [4]; 0.05 µM in [5]; 0.01 µM in [6]. The results for the Threshold in assay [8] and in assay [9] were 0.05 µM and 0.25 µM, respectively. In assay [7], the “lowest mandipropamid concentration with detectable PYR1^MANDI-HAB1 interaction in yeast reporter strain” value worked out at 2 nM.

The values are drawn from patent US9738902B2, “Modified PYR/PYL receptors activated by ligands” (priority 2013, dated 2017).
